Key:
Details in all cases: rana ridibundus
[1] = Blocking time for inhibition of epithelial sodium channels- NA+/H+ antiporter, Na+/ca+2 exchanger, Na+/ca+2 channels, K+ channel, nicotinic acetylcholine receptor and Na+/K+ ATPase
[2] = Inhibitory activity against epithelial sodium channels- NA+/H+ antiporter, Na+/ca+2 exchanger, Na+/ca+2 channels, K+ channel, nicotinic acetylcholine receptor and Na+/K+ ATPase
[3] = Inhibitory activity against epithelial sodium channels- NA+/H+ antiporter, Na+/ca+2 exchanger, Na+/ca+2 channels, K+ channel, nicotinic acetylcholine receptor and Na+/K+ ATPase (microscopic dissociation constant); format: ADME
[4] = Inhibitory activity against epithelial sodium channels- NA+/H+ antiporter, Na+/ca+2 exchanger, Na+/ca+2 channels, K+ channel, nicotinic acetylcholine receptor and Na+/K+ ATPase(microscopic dissociation constant)

| Structure (SMILES) | Block time [1] | Kon [2] | Koff [3] | Koff [4] |
| --- | --- | --- | --- | --- |
| Nc1cnc(C(=O)NC(N)N)c(N)n1 | 6 ms | 1.447e+07 M⁻¹ s⁻¹ | 176.25 s⁻¹ |  |
| Nc1nc(Cl)c(Cl)nc1C(=O)NC(N)N | 7 ms | 5.16e+06 M⁻¹ s⁻¹ | 151.1 s⁻¹ |  |
| Nc1ncc(Cl)nc1C(=O)NC(N)N | 92 ms | 3.32e+06 M⁻¹ s⁻¹ | 10.89 s⁻¹ |  |

Second part, the compound after the results:

| Block time [1] | Kon [2] | Koff [3] | Koff [4] | Structure (SMILES) |
| --- | --- | --- | --- | --- |
| 57 ms | 1.143e+07 M⁻¹ s⁻¹ | 17.41 s⁻¹ |  | Nc1nc(N)c(C(=O)NC(N)N)nc1I |
| 31 ms | 1.354e+07 M⁻¹ s⁻¹ | 32.2 s⁻¹ |  | Nc1nc(N)c(C(=O)NC(N)N)nc1F |
| 179 ms | 1.419e+07 M⁻¹ s⁻¹ |  | 5.58 s⁻¹ | Nc1nc(N)c(C(=O)NC(N)N)nc1Br |
| 255 ms | 1.317e+07 M⁻¹ s⁻¹ | 3.93 s⁻¹ |  | Nc1nc(N)c(C(=O)NC(N)N)nc1Cl |

— ChEMBL document CHEMBL1126173, “Molecular recognition of amiloride analogs: a molecular electrostatic potential analysis. 1. Pyrazine ring modifications” (J Med Chem, 1992)
